The text below walks through data of publication PMC2737262 (Bioorganic & medicinal chemistry letters, 2009).

As a reminder, the CC50 is the concentration giving 50% cytotoxicity. One may read the pEC50 as the EC50 on a negative log10 scale, so that one unit is a factor of ten. A lower pEC50 goes with a large EC50.

pEC50: −log10 of the molar value.

Data set [1] has as its system MT-2 cells.
Data set [2] relates to wild-type HIV-1 IIIB in MT-2 human T-cells. The data set can be described thus: MTT colorimetric assay, survival of HIV-infected MT-2 cells. It is filed as cell-based. (Tetrazolium assays rely on reduction of a dye to a coloured formazan, in cell work by metabolically active cells.)

For the compound `CC[C@H](C)[C@@H](CC(=O)N[C@@H](CCC(=O)O)CC(=O)O)NC(=O)C[C@@H](NC(=O)C[C@H](CCCN)NC(=O)C[C@H](Cc1c[nH]c2ccccc12)NC(=O)C[C@@H](NC(=O)C[C@H](CCC(=O)O)NC(=O)C[C@H](Cc1c[nH]c2ccccc12)NC(=O)C[C@@H](NC(=O)C[C@@H](N)CCCN)C(C)C)C(C)C)C(C)C` [βWWI-1], in data set [1], the CC50 worked out at 100 ± 19.6 µM.

In turn, `CC[C@H](C)[C@@H](CC(=O)N[C@@H](CCC(=O)O)CC(=O)O)NC(=O)C[C@@H](NC(=O)C[C@H](CCCN)NC(=O)C[C@H](Cc1cccc(C(F)(F)F)c1)NC(=O)C[C@@H](NC(=O)C[C@H](CCC(=O)O)NC(=O)C[C@H](Cc1c[nH]c2ccccc12)NC(=O)C[C@@H](NC(=O)C[C@@H](N)CCCN)C(C)C)C(C)C)C(C)C` [βWXI-a] had a CC50 in data set [1] of 150 ± 3.3 µM.

Turning to `CC[C@H](C)[C@@H](CC(=O)N[C@@H](CCC(=O)O)CC(=O)O)NC(=O)C[C@@H](NC(=O)C[C@H](CCCN)NC(=O)C[C@H](Cc1cccnc1)NC(=O)C[C@@H](NC(=O)C[C@H](CCC(=O)O)NC(=O)C[C@H](Cc1c[nH]c2ccccc12)NC(=O)C[C@@H](NC(=O)C[C@@H](N)CCCN)C(C)C)C(C)C)C(C)C` [βWXI-b], the CC50 in data set [1] is greater than 250 µM.

In the case of enfuvirtide, in data set [2], the negative-log EC50 (pEC50) is 7.43.
